Some results are limits rather than exact numbers.

The inhibition is the relative decrease from the control value, in per cent. As usually defined, the IC50 is the midpoint of a concentration-inhibition curve.

A short description of data set [1]: Determination of cytotoxicity in THLE-2 cells (ATP viability). It counts as cell-based. As to conditions: human; THLE-2 cells, 72 h exposure, 0-100 μM; read-out: LC50 (μM), cytotoxicity. Here is the method: Cytotoxic effects of assayed compounds were tested using the immortalized human liver cell line THLE-2 (ATCC CRL-2706). Cells were cultured in BEGM medium (Clonetics # CC-4175) containing all the supplements kit except additional EGF and G418. Medium was completed by adding 0.7 μg/mL phosphoethanolamine, 0.5 ng/mL epidermal growth factor, antibiotics (penicillin and streptomycin) and 10% fetal bovine serum (FBS).
Cells were plated in 96-well black microplates at 10,000 cells/well density and were incubated at 37° C. (5% CO2, 95% humidity) for 24 h to allow the cells to adhere and form a monolayer. Test compounds were solubilized in 100% DMSO at a concentration curve way and then diluted with cell culture medium containing 10% DMSO. The final concentrations of the test compounds (1% DMSO) ranged from 0-100 μM in a final volume of 200 μL. Microplates were maintained at 37° C. (5% CO2, 95% humidity) during 3 days. Following this 72 h exposure to test compounds, cell viability in each well was determined by measuring the concentration of cellular adenosine triphosphate (ATP) using the ATP1Step Kit as described by the manufacturer (Perkin-Elmer). In a typical procedure, 50 μL of cell reagent is added to all wells of each test plate followed by incubation for 10 min at room temperature on an orbital shaker. ATP concentration was determined by reading chemical luminescence using the Envision plate reader (PerkinElmer). The percentage of viable cells relative to the non-drug treated controls was determined for each well and LC50 values were calculated as concentrations projected to kill 50% of the cells following a 72 h exposure, an average of minimum two independent replicates.

In the next data set the target is T1, CYP1A2 (Homo sapiens, UniProt P05177).
T1 sequence (P05177 1-516): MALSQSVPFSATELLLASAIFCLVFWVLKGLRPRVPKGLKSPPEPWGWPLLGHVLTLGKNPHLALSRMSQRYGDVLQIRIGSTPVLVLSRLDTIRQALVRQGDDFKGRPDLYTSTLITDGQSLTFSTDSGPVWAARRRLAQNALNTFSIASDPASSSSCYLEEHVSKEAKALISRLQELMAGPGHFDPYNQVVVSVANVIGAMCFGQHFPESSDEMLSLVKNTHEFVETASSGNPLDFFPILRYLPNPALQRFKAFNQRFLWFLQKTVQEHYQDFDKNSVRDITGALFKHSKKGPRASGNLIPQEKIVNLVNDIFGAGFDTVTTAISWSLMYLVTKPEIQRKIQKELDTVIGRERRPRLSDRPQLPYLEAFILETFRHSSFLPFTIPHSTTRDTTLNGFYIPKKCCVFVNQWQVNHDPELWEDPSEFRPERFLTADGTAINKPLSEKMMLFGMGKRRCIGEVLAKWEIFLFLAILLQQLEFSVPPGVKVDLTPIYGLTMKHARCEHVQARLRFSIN
Briefly: Inhibition of human cytochrome P450 CYP1A2. The class given is in vitro ADME. As to conditions: human cytochrome P450 enzyme. From the text:
The epoxidation of arachidonic acid (AA) by selected cytochrome P450 epoxygenases generates epoxyeicosatrienoic acids (EETs). These EETs show anti-inflammatory, antihypertensive, analgesic, angiogenic, and antiatherosclerotic effects in rodents and humans. sEH converts EETs to their corresponding dihydroxyeicosatrienoic acids (DHETs), whereby the biological effects of EETs are diminished, eliminated, or altered. Among the P450 enzymes, it is known that CYP2C19 and CYP1A2 have the highest formation rate of EETs from AA (cf. A. A. El-Sherbeni et al. “Repurposing resveratrol and fluconazole to modulate human cytrochrome P450-mediated arachidonic acid metabolites”, Molecular Pharmaceutics 2016, vol. 13, pp. 1278-1288). For this reason, a highly desirable aspect of any new sEH inhibitor is selectivity in front of CYP2C19 and CYP1A2.

The target of a further data set is T2, recombinant human sEH (Homo sapiens, UniProt P34913).
T2 construct: purchased Cayman Chemical 10011669
T2 sequence (P34913 1-555): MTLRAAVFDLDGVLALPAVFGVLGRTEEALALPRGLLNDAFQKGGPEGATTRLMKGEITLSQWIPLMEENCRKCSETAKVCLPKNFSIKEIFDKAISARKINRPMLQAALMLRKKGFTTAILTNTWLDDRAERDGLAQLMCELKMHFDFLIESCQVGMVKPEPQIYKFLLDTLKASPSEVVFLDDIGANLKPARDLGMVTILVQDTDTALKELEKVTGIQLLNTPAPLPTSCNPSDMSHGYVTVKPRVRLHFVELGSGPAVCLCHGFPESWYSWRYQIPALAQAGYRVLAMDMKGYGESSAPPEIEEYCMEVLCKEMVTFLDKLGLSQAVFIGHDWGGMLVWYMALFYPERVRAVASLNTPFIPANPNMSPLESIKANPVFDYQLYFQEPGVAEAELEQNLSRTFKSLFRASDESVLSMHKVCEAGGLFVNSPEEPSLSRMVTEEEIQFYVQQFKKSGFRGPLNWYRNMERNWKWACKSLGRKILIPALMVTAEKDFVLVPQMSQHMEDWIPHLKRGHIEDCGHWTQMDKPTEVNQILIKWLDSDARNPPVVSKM
As to the kind of experiment: In vitro determination of sEH inhibition activity (fluorescent assay, PHOME substrate). The class given is biochemical. Particulars: mean ± Standard Error, min. three replicates, read-out: IC50 (nM) ± SE, sEH inhibition activity. Here is the method: 3-(Phenyl-oxiranyl)-acetic acid cyano-(6-methoxy-naphthalen-2-yl)-methyl ester (PHOME; from Cayman Chemical, item number 10009134; CAS 1028430-42-3); cf. N. M. Wolf et al., Anal. Biochem. 2006, vol. 355, pp. 71-80.
Solutions: • Assay buffer: Bis/Tris HCl 25 mM pH 7.0 containing 0.1 mg/mL of bovine serum albumin (BSA). • PHOME at 200 μM in DMSO. • Solution of recombinant human sEH (Cayman Chemical, item number 10011669), diluted with assay buffer. • Inhibitors dissolved in DMSO at appropriated concentrations.
In a black 96-well plate (Greiner Bio-One, item number 655900), fill the background wells with 90 μL and the positive control and inhibitor wells with 85 μL of assay buffer. Add 5 μL of DMSO to background and positive control wells, and then add 5 μL of inhibitor solution in inhibitor wells. Add 5 μL of the solution of hsEH to the positive control and inhibitor wells and mix several time. Prepare a 1/21 dilution of the solution of PHOME with assay buffer according to final volume required, and then add 105 μL of each well. Shake carefully the plate for 10 seconds and incubate for 5 minutes at room temperature. […] Results were obtained by regression analysis from at least three data points in a linear region of the curve. IC50 values are average of minimum three independent replicates.

In the case of `O=C(N[C@]12CC3C[C@@H](C[C@H](C3)O1)C2)N[C@H]1CC[C@H](Oc2ccc(C(=O)O)cc2)CC1` [Ig, trans-1-(2-oxaadamantan-1-yl)-3-[4-(4-carboxyphenoxy)cyclohexyl]urea], the CC50 at 72 h in data set [1] was above 100 µM. The compound further yielded an inhibition at 1 µM on CYP1A2 of at most 6%. For the same compound, the IC50 on recombinant human sEH was 13.4 ± 4 nM.

Source of the values: patent US20200079786A1, “ANALOGS OF […] AS SOLUBLE EPOXIDE HYDROLASE INHIBITORS” (UNIVERSITAT DE BARCELONA, priority 2015, published 2020).
